{
  "source": "patent US6066485A",
  "about": "“Growth factor inducible serine/threonine phosphatase fin13” (New York University, priority 1997, dated 2000)",
  "key": {"FIN13 mRNA [1]": {"test_system": "FIN13 mRNA", "assay": "FIN13 mRNA in ovaries of mice stimulated with DES", "format": "in vivo", "settings": "mouse", "method": "Northern analysis. RNA was electrophoresed on a 1% formaldehyde agarose gel, transferred overnight in 20×SSC to Genescreen-Plus nylon filters (Du Pont) and fixed by u.v. crosslinking. Filters were prehybridized, hybridized with radiolabeled cDNA probes and washed under standard conditions. To stimulate folliculogensis, immature mice (3 weeks) were injected subcutaneously with diethylstilbesterol (DES) or vehicle essentially as described previously (Guthridge et al., Growth Factors, 7:15 (1992)), and RNA was prepared from ovaries four days after stimulation."}, "his-FIN13": {"target": "T1, his-FIN13 (Mus musculus, UniProt Q61074)", "T1 construct": "Purified his-tagged full length FIN13 (his-FIN13); made in house; host or cells: E. coli BL21(DE3)", "T1 sequence (Q61074 151-542 limits assumed)": "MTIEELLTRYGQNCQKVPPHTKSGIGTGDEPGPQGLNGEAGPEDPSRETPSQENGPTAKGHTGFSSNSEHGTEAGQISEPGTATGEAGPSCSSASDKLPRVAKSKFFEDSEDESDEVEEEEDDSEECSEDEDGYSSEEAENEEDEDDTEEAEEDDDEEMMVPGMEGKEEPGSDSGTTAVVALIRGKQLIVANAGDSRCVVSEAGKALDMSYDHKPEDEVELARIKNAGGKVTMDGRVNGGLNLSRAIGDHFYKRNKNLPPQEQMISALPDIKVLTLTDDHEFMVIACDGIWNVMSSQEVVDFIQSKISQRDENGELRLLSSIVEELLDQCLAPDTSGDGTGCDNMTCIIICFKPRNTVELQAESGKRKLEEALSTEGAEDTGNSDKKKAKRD", "assay": "Phosphatase assay of bacterially expressed his-FIN13 with 32P-labelled casein", "format": "biochemical", "method": "FIG. 5. Phosphatase activity of bacterially expressed FIN13. Purified his-tagged full length FIN13 (his-FIN13) or his-tagged catalytic domain FIN13 (his-FIN13-cat) were examined for their ability to dephosphorylate ^32 P-labelled cascin in vitro as described in the Materials and Methods. Phosphatase assays were performed in the absence of his-FIN13 (No FIN13; open bar) or with his-FIN13 incubated in the presence of 10 mM of the indicated divalent cation (MgCl2, ZnCl2, CaCl2 or MnCl2)(solid bars) or in the presence of the indicated mM concentrations of MnCl2 (half-tone bars). +EDTA: indicates his-FIN13 incubated in the presence of 10 mM EDTA and 10 mM MnCl2. his-FIN13-cat was incubated in the presence of the indicated mM concentrations of MnCl2 (cross-hatched bars). his-FIN13 was also incubated in the presence of 1 μM okadaic acid (OA), 20 mg/ml poly L-lysine (PL-L), 20 mg/ml protamine sulfate (PS). All incubations were performed for 1 h at 30° C.\nPreparation of ^32 P-labelled casein. Casein (10 mg)(Sigma) was labelled with ^32 P using 10U of the catalytic subunit of cAMP dependent protein kinase (Sigma) in 50 mM Tris-HCl pH 7.0, 0.1 mM EGTA, 10 mM Mg-acetate, 0.1% β-mercaptoethanol, and 0.5 mCi of ^32 PγATP for 12 h at 30° C. The reaction mixture was then precipitated at 4° C. in 20% TCA. Labelled casein was recovered by centrifugation, the pellet washed 5 times in 100% acetone and resuspended in 50 mM Tris-HCl, 0.1 mM EGTA.\nPhosphatase assay. The phosphatase activity of purified FIN13 expressed in bacteria as a fusion protein with N- and C-terminal his-tags was assessed in vitro using ^32 P-labelled casein as a substrate. For preparation of his-FIN13 and his-FIN13-cat from bacteria, the BL21(DE3) strain transformed with pEThis-FIN13 or pEThis-FIN13-cat were induced with 0.2 mM IPTG for 2 h following which the cells were recovered by centrifugation, resuspended in column buffer (50 mM sodium phosphate, pH 8.0, 300 mM NaCl, 1 mM PMSF) and frozen overnight at -70° C. The bacteria were then lysed by sonication at 4° C. and the extract cleared by centrifugation. The supernatant was then adsorbed to Ni-NTA-agarose (Qiagen) at 4° C. for 1 h. The resin was then washed extensively in column buffer without PMSF and his-FIN13 or his-FIN13-cat were eluted using 25 mM Tris-HCl pH 7.2, 100 mM NaCl containing […] imidazole (Sigma). In addition, the phosphatase activity of FIN13 expressed in HeLa cells was also determined in an immune complex using ^32 P-labelled casein as a substrate. For preparation of immune complexes of myc-FIN13, HeLa cells were transfected with […] of pRKmyc-FIN13 or pRK5. Cells were lysed 24 h after transfection in lysis buffer (10 mM Na-phosphate pH 7.4, 100 mM NaCl, 1% TRITON X-100, 10 mM EDTA) also containing a protease/phosphatase inhibitor cocktail (1 mM PMSF, 1 μg/ml pepstatin, 1 μg/ml leupeptin, 1 μg/ml aprotinin, 10 mM Na-orthovanadate, 80 mM NaF, 80 mM β-glycerolphosphate, 10 μM okadaic acid). Cleared lysates (100 μg total protein) were immunoprecipitated with anti-myc monoclonal antibody (9E10) adsorbed to 30 μl protein G sepharose (Zymed) or anti-FIN13 antiserum adsorbed to 30 μl protein A sepharose (Zymed) for 1.5 h at 4° C. The anti-FIN13 polyclonal antiserum (630) was generated against the full length his-FIN13 expressed and purified from bacteria. The IPs were then washed 5 times with lysis buffer, once with 10 mM Tris-HCl pH 7.0, 100 mM NaCl and 5 mM MnCl2, and twice with phosphatase reaction buffer (10 mM Tris-HCl pH 7.0, 0.1 mM EGTA, 10 mM DTT and 10 mM MnCl2) containing 1 μM okadaic acid. Purified his-FIN13, his-FIN13-cat or myc-lPs were then examined for phosphatase activity by incubating the indicated FIN13 preparation in the presence of phosphatase reaction buffer containing ^32 P-labelled casein (1×10^5 cpm; approx. 1 μl) at 30° C. for up to 2 h."}, "myc-FIN13": {"target": "T2, myc-FIN13 (Mus musculus, UniProt Q61074)", "T2 construct": "in-frame with, and N-terminal to, the FIN13 open reading frame; expressed in transfected cells; host or cells: HeLa", "T2 sequence (Q61074 151-542)": "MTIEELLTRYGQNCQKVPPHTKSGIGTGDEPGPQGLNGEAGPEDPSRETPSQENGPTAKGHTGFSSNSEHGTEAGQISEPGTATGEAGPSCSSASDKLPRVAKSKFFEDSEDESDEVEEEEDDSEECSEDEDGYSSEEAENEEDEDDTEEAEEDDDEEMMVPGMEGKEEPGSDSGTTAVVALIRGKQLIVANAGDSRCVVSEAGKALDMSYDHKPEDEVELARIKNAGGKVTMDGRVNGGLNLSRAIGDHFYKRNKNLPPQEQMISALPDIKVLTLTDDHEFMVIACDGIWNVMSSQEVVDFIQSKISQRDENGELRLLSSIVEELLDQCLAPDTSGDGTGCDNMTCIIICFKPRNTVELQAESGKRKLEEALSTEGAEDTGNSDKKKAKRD", "assay": "Phosphatase assay of myc-FIN13 immunoprecipitated from transfected HeLa cells", "format": "biochemical", "method": "FIGS. 6A-6C. Phosphatase activity and expression of FIN13 in mammalian cells. HeLa cells transfected with either pRK5 vector or pRKmyc-FIN13 (expressing myc-FIN13) and harvested 24 h later, were lysed in lysis buffer and cleared extracts ([…]) were immunoprecipitated with either anti-myc antibodies (9E10) or anti-FIN13 antiserum (630). IPs were then divided and subjected to either Western analysis for the detection of FIN13 expression or a phosphatase assay. For the detection of FIN13 (A), 1/4 of the IP was boiled in sample buffer and loaded onto a 10% polyacrylamide gel, electrophoresed and transferred to a nitrocellulose filter. Western blot analysis was performed using the 630 antiserum at 1:500 as described in Materials and Methods. For analysis of phosphatase activity (B), the ability of myc-FIN13 immunoprecipitates (1/8 of IP) to dephosphorylate ^32 P-labelled casein was examined in vitro in the presence of okadaic acid and MnCl2 as described in Materials and Methods. […]\nPhosphatase assay. The phosphatase activity of purified FIN13 expressed in bacteria as a fusion protein with N- and C-terminal his-tags was assessed in vitro using ^32 P-labelled casein as a substrate. […] In addition, the phosphatase activity of FIN13 expressed in HeLa cells was also determined in an immune complex using ^32 P-labelled casein as a substrate. […]"}, "FIN13 mRNA [2]": {"test_system": "FIN13 mRNA", "assay": "Northern analysis of FIN13 mRNA induction in NIH 3T3 cells", "format": "cell-based, mouse", "method": "FIG. 4. Regulation of FIN13 (and other FINs) mRNA in response to FGF-4. NIH 3T3 cells were starved for 48 h in DMEM/0.5% CS and stimulated for the indicated times up to 24 h with 100 ng/ml FGF-4. A15 cells and NIH 3T3 cells growing asynchronously in the presence of DMEM/10% CS are indicated as A15 and 3T3 respectively. Total RNA (6 μg) was examined by Northern analysis with ^32 P-labelled cDNAs for the indicated FIN genes shown on the left. The position of 28S and 18S rRNA are indicated on the right.\n(§1) Cell culture. Mouse NIH 3T3 cells and A15 cells were cultured in Dulbecco's modified Eagle's medium (DMEM) containing 10% calf serum (CS). A15 cells are a NIH 3T3 cell line transformed with a human genomic fragment of the FGF-4 gene and have been previously described (Delli Bovi and Basilico, 1987, Proc. Natl. Acad. Sci. USA 84:5660). Rat pheochromocytoma PC12 cells were cultured in DMEM containing 10% heat inactivated horse serum (HS) (Gemini Bioproducts), 5% fetal bovine serum (FBS) (Gemini Bioproducts). […] Greater than 90% of PC12 cells had differentiated after 96 h or FGF-4 or NGF treatment as determined by the induction of neurite-like processes. […]\nA maximum induction of 6-fold following 18 h stimulation was observed. […] The effect of cycloheximide on the induction of FIN13 mRNA was evaluated as follows. […]"}, "Protein phosphatase 2A": {"target": "Protein phosphatase 2A (Homo sapiens, UniProt P67775)", "sequence (P67775 whole entry)": "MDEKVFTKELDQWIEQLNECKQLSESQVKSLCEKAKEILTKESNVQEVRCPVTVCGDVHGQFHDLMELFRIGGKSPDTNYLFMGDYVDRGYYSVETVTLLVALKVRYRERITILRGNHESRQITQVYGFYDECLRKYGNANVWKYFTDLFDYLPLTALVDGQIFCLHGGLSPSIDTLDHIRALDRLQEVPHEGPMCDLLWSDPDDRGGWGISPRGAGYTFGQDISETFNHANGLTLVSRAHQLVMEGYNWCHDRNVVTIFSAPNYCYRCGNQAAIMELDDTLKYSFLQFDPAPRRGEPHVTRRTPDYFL", "assay": "Protein phosphatase 2A control phosphatase assay", "format": "biochemical", "settings": "2 h, presence of okadaic acid"}, "FIN13 transcripts": {"test_system": "FIN13 transcripts", "assay": "Regulation of FIN13 transcripts in PC12 cells", "format": "cell-based, rat", "settings": "starved PC12 cells", "method": "as §1, with “Bioproducts). For stimulation with growth factors, NIH 3T3 cells were grown to 60-80% confluence, starved for 48 h in DMEM containing 0.5% CS and then stimulated with 50 ng/ml recombinant human FGF-4 or 10% CS for up to 24 h. Where indicated 10 μg/ml cycloheximide was added simultaneously with the growth factor. PC12 cells were starved for 48 h in DMEM containing 4.9 g/l glucose, 0.1% HS and 5% FBS for up to 24 h.” for “Bioproducts).”\nCells were starved for 48 h in 0.2% serum and then stimulated with either serum or FGF-4. […] Similar regulation of FIN13 was observed when starved PC12 cells were stimulated with FGF-4 with maximum expression detected at 12 h which decreased until 96 h."}},
  "note": "Read-outs that look alike come from different tables or passages of the source.",
  "data": [
    {"molecule": "CC/C(=C(/CC)c1ccc(O)cc1)c1ccc(O)cc1", "note": "[DES, diethylstilbesterol]", "values": [
      {"measurement": "expression of fin13 mRNA in ovaries", "setting": "FIN13 mRNA [1]", "result": "increases expression"}
    ]},
    {"molecule": "O=C(O)CN(CCN(CC(=O)O)CC(=O)O)CC(=O)O", "note": "[EDTA]", "values": [
      {"measurement": "effect on his-FIN13 phosphatase activity", "setting": "his-FIN13", "result": "abolished activity"},
      {"measurement": "effect on FIN13 activity in 9E10 IPs", "setting": "myc-FIN13; EDTA 10 mM", "result": "abolished"}
    ]},
    {"molecule": "C[C@@H]1C[C@@H]([C@H](O)CC2CC(=O)NC(=O)C2)C(=O)[C@@H](C)C1", "note": "[cycloheximide]", "values": [
      {"measurement": "induction of FIN13 mRNA by FGF-4 in presence of protein synthesis inhibitor", "setting": "FIN13 mRNA [2]; 18 h FGF-4, 10 mg/ml cycloheximide", "result": "did not result in induction of FIN13"}
    ]},
    {"molecule": "C=C1[C@@H](O)[C@@H]2O[C@]3(CC[C@H](/C=C/[C@@H](C)[C@@H]4CC(C)=C[C@@]5(O[C@H](C[C@@](C)(O)C(=O)O)CC[C@H]5O)O4)O3)CC[C@H]2O[C@@H]1[C@@H](O)C[C@H](C)[C@H]1O[C@@]2(CCCCO2)CC[C@H]1C", "note": "[okadaic acid]", "values": [
      {"measurement": "effect on PP2A activity", "setting": "Protein phosphatase 2A", "result": "abolished"},
      {"measurement": "effect on his-FIN13 phosphatase activity", "setting": "his-FIN13; 1 μM okadaic acid", "result": "not inhibited"}
    ]},
    {"molecule": "myc-FIN13: FIN13 N-terminally fused to the myc epitope, expressed from pRKmyc-FIN13 (protein) MTIEELLTRYGQNCQKVPPHTKSGIGTGDEPGPQGLNGEAGPEDPSRETPSQENGPTAKGHTGFSSNSEHGTEAGQISEPGTATGEAGPSCSSASDKLPRVAKSKFFEDSEDESDEVEEEEDDSEECSEDEDGYSSEEAENEEDEDDTEEAEEDDDEEMMVPGMEGKEEPGSDSGTTAVVALIRGKQLIVANAGDSRCVVSEAGKALDMSYDHKPEDEVELARIKNAGGKVTMDGRVNGGLNLSRAIGDHFYKRNKNLPPQEQMISALPDIKVLTLTDDHEFMVIACDGIWNVMSSQEVVDFIQSKISQRDENGELRLLSSIVEELLDQCLAPDTSGDGTGCDNMTCIIICFKPRNTVELQAESGKRKLEEALSTEGAEDTGNSDKKKAKRD", "values": [
      {"measurement": "phosphatase activity of immunoprecipitate in vitro", "setting": "myc-FIN13; IP with 9E10 or 630, okadaic acid and MnCl2 present", "result": "exhibited phosphatase activity"}
    ]},
    {"molecule": "FGF-4: recombinant human fibroblast growth factor 4 (protein, UniProt P08620 31-206, looked up) Fibroblast growth factor 4: APTAPNGTLEAELERRWESLVALSLARLPVAAQPKEAAVQSGAGDYLLGIKRLRRLYCNVGIGFHLQALPDGRIGGAHADTRDSLLELSPVERGVVSIFGVASRFFVAMSSKGKLYGSPFFTDECTFKEILLPNNYNAYESYKYPGMFIALSKNGKTKKGNRVSPTMKVTHFLPRL", "values": [
      {"measurement": "maximum induction of FIN13 mRNA", "setting": "FIN13 mRNA [2]; 18 h stimulation of NIH 3T3 cells", "result": 6, "unit": "fold"},
      {"measurement": "time of maximum FIN13 expression", "setting": "FIN13 transcripts", "result": 12, "unit": "h"}
    ]}
  ]
}
